Patent publication US7014856B1, “Ganglioside-KLH conjugate vaccines plus OS-21” (Sloan-Kettering Institute for Cancer Research, priority 1993, dated 2006)
Values joined by “and” are separate entries in the source; they are usually repeats but may differ in a detail not shown here. Identical values can stand only once. “Also recorded” adds a separate entry of the source.

Legend:
[1] = tested on: mouse, cat and Rhesus monkey; conditions: doses as high as 125 ug per mouse; cited from earlier work
[2] = tested on: T antigen-KLH; assay: Preclinical adjuvant studies with KLH-conjugate vaccines such as T antigen-KLH; format: in vivo, mice
[3] = tested on: QS-21; assay: ELISA for antibodies to QS-21; format: in vivo, human; conditions: after immunizations
Procedure: (§1) Enzyme-linked Immunosorbent Assay (ELISA) were performed as previously described for gangliosides (5). […] The titer was defined as the highest dilution yielding a corrected absorbance of 0.1 or greater. Immunostaining of gangliosides with monoclonal antibodies or human sera was performed after spotting on nitrocellulose strips as previously described (22). […] Twenty-five micrograms of each were diluted in 0.05 ml PBS and administered intradermally. Results were interpreted as described previously (5).

[4] = tested on: melanoma patients; conditions: outpatient setting, s.c. with GM2-KLH
Procedure: Melanoma patients with AJCC Stage III or IV disease were considered eligible if all evidence of metastatic disease had been rejected within the last 8 months. None of the patients had received prior chemotherapy or radiation therapy. Patients were evaluated for toxicity at the time of each vaccination. In addition, patients were instructed to measure local reactions and to take their temperature.
The GM2/KLH solar ratio was approximately 800/1 and was supplied at a concentration of 0.57 mg conjugate per 0.5 ml normal saline. This represented one patient dose and contained 70 ug GM2, 500 ug KLH and 0.5 ml normal saline. QS-21 adjuvant, containing a saponin component isolated from Quillaja saponaria Molina tree bark, was provided by Cambridge Biotech Corp. (Worcester, Mass.). The purity of the QS-21 was determined to be ≧98% by analytical reverse phase HPLC. […] The vaccine (final volume 0.75 ml) was vortexed for 2–3 minutes and administered within 15 min. Four vaccinations were administered subcutaneously at two week intervals followed by two more at eight week intervals. Initially 12 patients were treated, 3 at each of the 4 QS-21 doses. […] Cyclophosphamide (Cytoxan, Mead Johnson and Co., Evansville, Id.) 200 mg/M^2 was administered IV to all patients 3–6 days prior to the first vaccination.

[5] = tested on: GM2; assay: Dot blot immune stain against GM2 (fourth series); format: in vivo, human; design: key: Reactions were graded 0, 1+, 2+ or 3+; Reactions were graded 0, 1+, 2+ or 3+; Reactions were graded 0, 1+, 2+ or 3+; Reactions were graded 0, 1+, 2+ or 3+
Procedure: as §1

[6] = tested on: melanoma patients; conditions: six patients per group
[7] = tested on: KLH; assay: IgG ELISA titer against KLH (fourth series); format: in vivo, human; conditions: No adjuvant
Procedure: as §1

[8] = tested on: patients; assay: Toxicity in patients treated earlier with GM2 or GM2-KLH vaccines; format: in vivo, human
[9] = tested on: ganglioside GM2; assay: Peak antibody titer against ganglioside GM2 by ELISA (Table 2); format: in vivo, human; conditions: peak titer against GM2 after immunization
[10] = tested on: GM2; assay: ELISA for GM2 antibodies in patients receiving GM2-KLH conjugate vaccines (third series); format: in vivo, human
Procedure: Four vaccinations were administered intradermally into extremities with intact lymphatic drainage at two-week intervals, followed by two additional vaccinations at eight week intervals. Cyclophosphamide (Cytoxan, Mead Johnson and Co., Evansville, Ind.) 200 mg/m2 was administered intravenously to all patients 4 to 6 days prior to the first vaccination.
(§2) ELISA was performed as previously described (6). To control for nonspecific “stickiness”, immune sera were also tested on plates which were processed identically but to which no ganglioside had been added, and the reading was subtracted from the value obtained in the presence of ganglioside. The titer was defined as the highest dilution yielding a corrected absorbance of 0.1 or greater. Immunostaining of gangliosides with monoclonal antibodies or human sera was performed after spotting on nitrocellulose strips (14) or separation on HPTLC silica gel glass plates as previously described (3). Plates were developed in chloroform/methanol/water (0.25% CaCl2) 50:40:10 (v/v), and gangliosides were visualized by staining with resorcinol/HCl reagent or monoclonal antibodies.

[11] = tested on: GM2; assay: Dot blot immune stain for GM2 antibodies (third series); format: in vivo, human
Procedure: as §2

[12] = tested on: GM2; assay: ELISA titer against GM2 (fourth series); format: in vivo, human
Procedure: as §1

[13] = tested on: KLH; assay: ELISA for KLH antibodies (third series); format: in vivo, human
[14] = tested on: melanoma patients; assay: Delayed-type hypersensitivity skin tests with GM2, GM2-HSA and KLH; format: in vivo, human; conditions: 25 micrograms intradermally at the fifth vaccination; 24 and 48 hours
Procedure: as §1

QS-21
toxicity [1]: no clear toxicity | DTH ([2]; mice): potent DTH | IgG antibody titers ([2]; most mice, KLH-conjugate vaccine with QS-21): over 1/4000 | antibodies against QS-21 [3]: No antibodies against QS-21 were detected; also recorded: no significant increase in antibody to QS-21 | probable MTD per vaccination [4]: 200 µg

11^3NeuAc-GgOse3Cer-keyhole limpet hemocyanin (KLH) [GM2-KLH]
median IgM dot blot reaction against GM2 ([5]; GM2-KLH alone): 2+ | PEAK DOT BLOT IMMUNE SYSTEM RESPONSE AGAINST GM2 IgG ([5]; No adjuvant): 0 and 1+ | PEAK DOT BLOT IMMUNE SYSTEM RESPONSE AGAINST GM2 IgM ([5]; No adjuvant): 2+ and 1+, and 0 and 3+, | median IgG dot blot reaction against GM2 ([5]; no QS-21): 0 | local or systemic side effects [6]: No local or systemic toxicity | IgG ELISA TITER AGAINST KLH Pretreatment [7]: 0 (6) | toxicity attributed to the substance [8]: pain and tenderness at vaccines sites lasting 48 hours | Antibody Titers by Elisa IgG [9]: 0 | Reciprocal GM2 antibody titers before immunization IgG ([10]; before immunization): 0 | median titers: reciprocal GM2 antibody titer after immunization (Peak) IgG ([10]; median, after immunization): 0 | median titers: reciprocal GM2 antibody titer after immunization (Peak) IgM ([10]; median, after immunization): 80 | median titers: reciprocal GM2 antibody titer before immunization IgG ([10]; median, before immunization): 0 | median titers: reciprocal GM2 antibody titer before immunization IgM ([10]; median, before immunization): 0 | patients with 3+ reactivity of IgM antibodies against GM2 [11]: two of six | Reciprocal median IgM antibody titer against GM2 ([12]; GM2-KLH alone): 80 | median IgG antibody titer against GM2 ([12]; GM2-KLH alone): 0 | patients who produced IgM antibody ([12]; GM2-KLH alone): Five of 6 | patients who produced IgG antibody (of low titer) ([12]; GM2-KLH alone, 6 patients): 1 | PEAK ELISA TITER AGAINST GM2 Pretreatment IgG ([12]; No adjuvant): 0 (6) | induction of IgM and IgG antibody titers, 7 μg GM2 dose versus 70 μg dose ([12]; patients with advanced disease, 100 μg QS-21): equally as effective | median titers: reciprocal KLH antibody titer after immunization (Peak) IgG [13]: 120

II^3NeuAc-GgOse3Cer [GM2, reference compound]
toxicity attributed to the substance [8]: No toxicity | reaction at skin test sites [14]: No erythema or induration
